Reference: patent US11690828B2, “Treatment of CNS diseases with sGC stimulators” (Cyclerion Therapeutics, Inc., priority 2016, dated 2023)

Columns and labels:
cGMP = test: Compound-induced cGMP in mouse brain; format: in vivo
Method: Protocol. Mice (n=9-10 per experimental condition) were dosed P.O. with vehicle (1% hydroxypropyl methyl cellulose, 0.2% Tween80, 0.5% methyl cellulose), P.O. with 10 mg/Kg of Compound I-2. Thirty minutes after dosing, under isoflurane anesthesia, each mouse was decapitated and its brain was removed and was placed into an ice-cold petri dish containing slushy dissection solution (saturated with 95% O2·5% CO2). Using an ice-cold spatula, the brain was transferred to mouse brain matrix with coronal spacing for slicing at 1 mm intervals, as schematized in the FIGURE below (not to scale, just a scheme). • ?
The sliced brain was transferred back into petri dish containing slushy dissection solution with IBMX 0.5 mM (saturated with 95% O2·5% CO2). The dorsal striatum is dissected first, followed by the hippocampus second, followed by the medial prefrontal cortex third, and lastly, the cerebellum fourth. After each region was dissected the “chunk” of tissue was immediately placed into an eppendorf which had been placed on dry ice for the previous 30 minutes. Small pieces of tissue froze very fast, within 10 seconds approximately. After all regions were placed in an eppendorf, eppendorfs were snap frozen by immersion into liquid nitrogen. The tissue samples were stored at −80 C. cGMP levels in brain were determined by LC/MS. Brain samples were homogenized in an aqueous buffer consisting of 80:20 (V/V %) water:acetic acid using an ultrasonicator probe. Brain homogenates containing sGC compounds and or cGMP were extracted from brain tissue by protein precipitation with an organic solvent containing internal standards (IS) followed by filtration and phospholipid removal using a Phenomenex® Phree™ phospholipid removal plate. Samples were analyzed using liquid chromatography (LC) with tandem mass spectrometric detection (MS/MS) using electrospray ionization. The standard curve concentrations used for quantitation of cGMP and or sGC compound(s) ranged from 0.2 to 400 ng/mL. Protein quantification of brain samples was determined using BCA protein assay kit.

Healthy rats [1] = test: Healthy rats - paw pressure test; format: in vivo, rat; conditions: Compound I-2 p.o. 10 mg/kg; 120 minutes after treatment
Method: (§1) Paw Pressure Test. Static mechanical hyperalgesia is measured. This test requires the application of an increasing pressure on the hind paws between a flat surface and a blunt pointer. To evaluate the analgesic action of a compound, one hind paw of the animal was inflamed by an injection or injured by ligation, while the other hind paw was not injured or inflamed. The apparatus exerted a steadily increasing force on the hind paws. The reaction threshold was determined as the pressure (g) required to elicit paw withdrawal and/or vocalization. The animals were gently handled by the experimenter and static mechanical hyperalgesia were assessed two times for both hind paws.
(§2) Testing: 120 minutes after treatment. N=4/model/test. Results are expressed for each group as a percentage of activity calculated from the mean value of the vehicle-treated animals and compared to naïve animals, control paw, or cut-off value, depending on the test.

Healthy rats [2] = test: Healthy rats - tail flick test; format: in vivo, rat; conditions: Compound I-2 p.o. 10 mg/kg; 120 minutes after treatment
Method: Tail Flick Test. A radiant heat was applied on the tail. When the rat felt discomfort, it reacted by a sudden tail movement (tail flick) which automatically stopped the stimulation and the timer for the measurement by the animal reaction time or nociceptive reaction latency (period from the beginning of the stimulation until detection of the response of the animal). A cut-off was previously fixed at 10 sec in order to prevent tissue damage.
as §2

rats [3] = test: Formalin test - score; format: in vivo, rat; conditions: Compound I-2 p.o. 10 mg/kg; 120 minutes after treatment
Method: Formalin Test. 2.5% formalin solution was injected by subplantar route into the right hind paw. Scoring of pain behavior was performed in rats for 36 minutes every 3 minutes according to the following scores:
0=normal behavior of the injected hind limb to support the body
1=slight touching of the injected paw on the floor to lightly support or not support the body
2=total withdrawal of the injected paw
3=licking, biting or shaking of the injected paw.
as §2

rats [4] = test: Bennett model - paw pressure test; format: in vivo, rat; conditions: Compound I-2 p.o. 10 mg/kg; 120 minutes after treatment
Method: as §1
Bennett Model. Peripheral mononeuropathy was induced by loose ligation of the sciatic nerve in anesthetized rats (Xylazine 10 mg/kg i.p., ketamine 60 mg/kg i.p.) on D−14. Briefly, the common sciatic nerve was exposed at the level of the middle of the thigh by blunt dissection through the biceps femoris. Proximal to the sciatic trifurcation, four ligatures were loosely tied around it with about 1-mm spacing. […]
Testing: 120 minutes after treatment. […] Results are expressed for each group as a percentage of activity calculated from the mean value of the vehicle-treated animals and compared to naïve animals, control paw, or cut-off value, depending on the test.

rats [5] = test: Oxaliplatin - acetone test (reaction time); format: in vivo, rat; conditions: Compound I-2 p.o. 10 mg/kg; 120 minutes after treatment
Method: Oxaliplatin. Induction: Acute peripheral neuropathy was induced by a single intraperitoneal injection of oxaliplatin (6 mg/kg, i.p) 30 hours before testing. Acetone test: Cold allodynia was measured using the acetone test. In this test, the latency of hind paw withdrawal was measured after application of a drop of acetone (50 μL) to the plantar surface of both hind paws three times for both hind paws alternatively with intervals of approximately 2-3 min.
as §2

rats [6] = test: TNBS - colorectal distension; format: in vivo, rat; conditions: Compound I-2 p.o. 10 mg/kg; 120 minutes after treatment
Method: TNBS. Surgery: Colonic sensitivity was induced by surgical administration of TNBS seven days before behavioral testing (D−7). Fasted (overnight) animals underwent surgery. Briefly, under anesthesia (Xylazine 10 mg/kg i.p., ketamine 60 mg/kg i.p.), injection of TNBS (50 mg/kg, 1 mL/kg) was performed into the proximal part of the colon (1 cm from the caecum). After surgery, animals returned in their home cages in a regulated environment, and were fed ad libitum until D−1 (animals were fasted 24 hours before distention). Colorectal distension: Seven days (D0) after TNBS injection, colonic sensitivity was assessed on fasted (overnight) animals by measuring the intra-colonic pressure required to induce a behavioral response during colonic distension. To perform distension, a 5-cm balloon was gently inserted into the colon of vigil animals at 10 cm from the anus and the catheter was taped to the base of the tail. […] Pain behavior was characterized by an elevation of the hind part of the animals body and a clearly visible abdominal contraction corresponding to a severe cramp. Two determinations were performed.
as §2

For `Fc1ccccc1Cn1nc(-c2nc(C(F)(F)F)n[nH]2)c2cccnc21` [Compound I-2], the “mPFC: nM cGMP/μg protein” value (cGMP; mouse cortex, 10 mg/Kg P.O., 30 minutes after dosing, vehicle 0.075) was 0.124 nM cGMP/μg protein, the “Hippocampus: nM cGMP/μg protein” value (cGMP; mouse, 10 mg/Kg P.O., 30 minutes after dosing, vehicle 0.033) was 0.072 nM cGMP/μg protein and the “Striatum: nM cGMP/μg protein” value (cGMP; mouse, 10 mg/Kg P.O., 30 minutes after dosing, vehicle 0.062) was 0.104 nM cGMP/μg protein. The “Cerebellum: nM cGMP/μg protein” value (cGMP; mouse, 10 mg/Kg P.O., 30 minutes after dosing, vehicle 0.364) was 0.681 nM cGMP/μg protein, the “cGMP in the cerebellum versus vehicle” value (cGMP; mouse, acute 10 mg/Kg P.O.) was “significant increase” and the “cGMP in the cortex versus vehicle” value (cGMP; mouse, acute 10 mg/Kg P.O.) was “significant increase”. For the same compound, the “cGMP in the hippocampus versus vehicle” value (cGMP; mouse, acute 10 mg/Kg P.O.) was “significant increase”, the “% of activity vs. vehicle, healthy rats paw pressure test” value (Healthy rats [1]) was −10% and the “% of activity vs. vehicle, healthy rats tail flick test” value (Healthy rats [2]) was 15%. The “% of activity vs. vehicle, formalin test score (early phase)” value (rats [3]) was 61%, the “% of activity vs. vehicle, formalin test score (late phase)” value (rats [3]) was 11% and the “% of activity vs. vehicle, Bennett model paw pressure test” value (rats [4]) was 65%. The “% of activity vs. vehicle, oxaliplatin acetone test (reaction time)” value (rats [5]) was 127% and the “% of activity vs. vehicle, TNBS colorectal distension” value (rats [6]) was 43%.
